Data as given in patent US20200239530A1, “COMPOUNDS AND METHODS OF MODULATING PROTEIN DEGRADATION” (Vividion Therapeutics, Inc., priority 2017, published 2020).
Where two headings read alike, the source gives them in different places.

What was measured:
Experiment in all cases: Cysteine liganding, probe competition
Assay type in all cases: binding
UniProt Q68DV7 = molecular target: T1, UniProt Q68DV7 (Homo sapiens, UniProt Q68DV7)
T1 construct: 200 μL of lysate containing 5 mg/ml proteome was treated with 2 μL of 100× compound stock; endogenous in cells
T1 sequence (Q68DV7 24-783): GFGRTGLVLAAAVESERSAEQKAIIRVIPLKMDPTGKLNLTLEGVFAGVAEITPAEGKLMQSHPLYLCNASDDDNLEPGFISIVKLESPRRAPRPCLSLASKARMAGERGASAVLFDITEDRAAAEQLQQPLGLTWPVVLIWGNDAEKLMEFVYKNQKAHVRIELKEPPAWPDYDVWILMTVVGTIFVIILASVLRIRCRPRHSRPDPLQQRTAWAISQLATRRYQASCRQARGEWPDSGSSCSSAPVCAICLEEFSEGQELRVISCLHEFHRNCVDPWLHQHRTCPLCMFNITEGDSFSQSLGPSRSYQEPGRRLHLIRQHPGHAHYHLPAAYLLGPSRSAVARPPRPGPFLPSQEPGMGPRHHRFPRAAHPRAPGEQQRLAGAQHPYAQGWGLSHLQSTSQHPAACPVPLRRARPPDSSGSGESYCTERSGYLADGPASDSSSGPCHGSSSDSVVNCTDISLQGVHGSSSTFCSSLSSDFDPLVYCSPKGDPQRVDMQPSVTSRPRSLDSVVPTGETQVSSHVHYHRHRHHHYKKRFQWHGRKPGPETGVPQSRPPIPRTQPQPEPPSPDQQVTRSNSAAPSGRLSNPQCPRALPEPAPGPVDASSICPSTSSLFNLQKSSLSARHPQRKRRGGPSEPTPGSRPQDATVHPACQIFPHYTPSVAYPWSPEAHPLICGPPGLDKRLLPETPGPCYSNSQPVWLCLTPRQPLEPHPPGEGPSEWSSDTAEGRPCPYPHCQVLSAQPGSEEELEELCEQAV
Description: (§1) The following 96-well sample prep protocol was used for sample preparation.

UniProt Q6ZN04 = molecular target: T2, UniProt Q6ZN04 (Homo sapiens, UniProt Q6ZN04); conditions: for inhibition at 500 µM: read-out: percent inhibition
T2 construct: Cells were resuspended in cold PBS on ice and sonicated with a probe sonicator to achieve lysis; endogenous in cells
T2 sequence (Q6ZN04 1-569): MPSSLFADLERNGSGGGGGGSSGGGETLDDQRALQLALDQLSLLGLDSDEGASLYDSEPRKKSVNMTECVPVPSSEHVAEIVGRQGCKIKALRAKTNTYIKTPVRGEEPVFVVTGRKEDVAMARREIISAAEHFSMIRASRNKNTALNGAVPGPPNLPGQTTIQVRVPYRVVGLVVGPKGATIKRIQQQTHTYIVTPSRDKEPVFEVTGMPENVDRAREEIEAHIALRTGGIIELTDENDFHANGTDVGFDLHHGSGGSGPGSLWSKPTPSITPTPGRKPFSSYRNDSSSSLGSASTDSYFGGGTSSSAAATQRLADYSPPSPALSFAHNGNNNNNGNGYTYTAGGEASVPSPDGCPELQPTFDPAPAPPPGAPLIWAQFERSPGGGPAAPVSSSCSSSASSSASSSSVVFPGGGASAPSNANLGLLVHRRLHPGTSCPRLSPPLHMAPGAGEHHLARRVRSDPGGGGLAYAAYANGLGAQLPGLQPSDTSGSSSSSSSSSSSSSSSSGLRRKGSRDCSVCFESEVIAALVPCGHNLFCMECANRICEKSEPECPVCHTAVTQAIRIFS
Description: as §1

UniProt Q8TE49 = molecular target: T3, UniProt Q8TE49 (Homo sapiens, UniProt Q8TE49)
T3 construct: Cells were resuspended in cold PBS on ice and sonicated with a probe sonicator to achieve lysis; endogenous in cells
T3 sequence (Q8TE49 1-926): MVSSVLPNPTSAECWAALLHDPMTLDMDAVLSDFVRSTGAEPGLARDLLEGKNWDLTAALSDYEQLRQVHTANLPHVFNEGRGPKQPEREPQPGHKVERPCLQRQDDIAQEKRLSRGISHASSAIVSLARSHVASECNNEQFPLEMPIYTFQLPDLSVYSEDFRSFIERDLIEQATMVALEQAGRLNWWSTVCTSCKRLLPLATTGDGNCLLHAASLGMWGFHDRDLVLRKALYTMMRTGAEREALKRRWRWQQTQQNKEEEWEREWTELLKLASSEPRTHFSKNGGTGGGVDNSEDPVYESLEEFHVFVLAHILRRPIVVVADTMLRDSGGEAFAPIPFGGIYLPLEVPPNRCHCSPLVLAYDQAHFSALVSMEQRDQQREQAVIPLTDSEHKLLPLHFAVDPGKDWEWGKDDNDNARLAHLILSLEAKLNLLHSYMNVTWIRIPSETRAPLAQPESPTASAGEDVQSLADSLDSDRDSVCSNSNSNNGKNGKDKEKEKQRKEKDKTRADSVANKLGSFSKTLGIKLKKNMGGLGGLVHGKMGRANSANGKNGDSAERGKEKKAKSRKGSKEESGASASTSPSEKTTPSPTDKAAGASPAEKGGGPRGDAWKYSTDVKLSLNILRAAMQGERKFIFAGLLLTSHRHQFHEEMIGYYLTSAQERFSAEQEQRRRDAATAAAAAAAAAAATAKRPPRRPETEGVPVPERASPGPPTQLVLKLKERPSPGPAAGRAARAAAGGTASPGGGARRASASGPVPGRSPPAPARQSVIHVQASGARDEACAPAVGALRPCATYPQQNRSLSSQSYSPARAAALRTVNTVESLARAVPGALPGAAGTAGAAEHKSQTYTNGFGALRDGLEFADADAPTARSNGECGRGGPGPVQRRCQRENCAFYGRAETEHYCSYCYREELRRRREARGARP
Description: as §1

[1] = 500 uM, read-out: percent_inhibition

| percent_inhibition (UniProt Q68DV7; 500 uM) | inhibition at 500 µM (UniProt Q8TE49; 500 uM, read-out: KB05_500 uM_percent_inhibition) | Structure (SMILES) | percent_inhibition (UniProt Q68DV7; 100 uM) | inhibition at 100 µM (UniProt Q68DV7; 100 uM, read-out: percent_inhibition) | inhibition at 500 µM (UniProt Q68DV7; [1]) | inhibition at 500 µM (UniProt Q6ZN04) | inhibition at 500 µM (UniProt Q8TE49; 500 uM, read-out: KB02_500 uM_percent_inhibition) | percent inhibition (UniProt Q6ZN04; 500 uM) | KB03_100 uM_percent_inhibition (UniProt Q8TE49; 100 uM) | KB03_500 uM_percent_inhibition (UniProt Q8TE49; 500 uM) |
| --- | --- | --- | --- | --- | --- | --- | --- | --- | --- | --- |
| – | – | COc1ccc2c(c1)CCCN2C(=O)CCl [KB02] | 21% | 13% | 41% | 51% | 28% | – | – | – |
| 40% | 23% | C=CC(=O)N(c1ccccc1)c1ccc(Br)cc1 [KB05] | – | – | 42% | 51% | – | – | – | – |
| – | – | O=C(CCl)Nc1cc(C(F)(F)F)cc(C(F)(F)F)c1 [KBO3] | 7% | – | – | – | – | 28% | 52% | 56% |
